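Cells were grown in 96-well plates and exposed to each compound for 48 hours at five concentrations; endpoints were interpolated linearly between bracketing concentrations, or set to the highest concentration if not reached. GI50 is the concentration that inhibits growth by half.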 The source made the active and inactive calls. No stated cut-off is given here; in the data, active = GI50 up to about 1.1 µM and inactive = higher. Where a SMILES comes first, the peptide text is derived from it. [ ]: non-standard residue; d: D form. The star is where a group is joined. ξ: configuration not given here. ξF = NC(Cc1ccccc1)C(=O)O; Cbz = O=C(OCc1ccccc1)*; Aib = CC(C)(N)C(=O)O; NHNH2 = NN*
What was measured:
Assay in all cases: DTP human tumour cell line panel, 48 h
[1] = tested on: UACC-62
[2] = tested on: COLO 205
[3] = tested on: DU-145
[4] = tested on: CCRF-CEM
[5] = tested on: PC-3
[6] = tested on: SF-268
[7] = tested on: SK-MEL-28
[8] = tested on: OVCAR-4
[9] = tested on: MDA-N
[10] = tested on: A549
[11] = tested on: SNB-75
[12] = tested on: EKVX
[13] = tested on: HOP-62
[14] = tested on: MDA-MB-231
[15] = tested on: SNB-19
[16] = tested on: IGROV-1
[17] = tested on: SF-295
[18] = tested on: HCT-116
[19] = tested on: BT-549
[20] = tested on: NCI-H226
[21] = tested on: HT-29
[22] = tested on: OVCAR-5
[23] = tested on: UO-31
[24] = tested on: 786-0
[25] = tested on: SK-MEL-2
[26] = tested on: MCF7
[27] = tested on: TK-10
[28] = tested on: CAKI-1
[29] = tested on: SF-539
[30] = tested on: T47D
[31] = tested on: NCI-H522
[32] = tested on: U-251
[33] = tested on: Hs-578T
[34] = tested on: NCI/ADR-RES
[35] = tested on: SK-MEL-5
[36] = tested on: Malme-3M
[37] = tested on: M14
[38] = tested on: HCT-15
[39] = tested on: SN12C
[40] = tested on: NCI-H23
[41] = tested on: UACC-257
[42] = tested on: LOX IMVI
[43] = tested on: SW-620
[44] = tested on: RXF 393
[45] = tested on: SK-OV-3
[46] = tested on: HL-60
[47] = tested on: A498
[48] = tested on: ACHN
[49] = tested on: MDA-MB-435
[50] = tested on: OVCAR-8
[51] = tested on: KM12
[52] = tested on: HCC 2998
[53] = tested on: RPMI-8226
[54] = tested on: NCI-H460
[55] = tested on: OVCAR-3
[56] = tested on: MOLT-4
[57] = tested on: K562
[58] = tested on: HOP-92

## C=C(C(=O)O)C1CCC(CC/C=C(\C)CC/C=C(\C)CCC=C(C)C)CO1 (stereo not given)
[1]
  GI50: 40 µM (inactive)
[2]
  GI50: 11.2 µM (inactive)
[3]
  GI50: 17.5 µM (inactive)
[4]
  GI50: 22.6 µM (inactive)
[5]
  GI50: 24.8 µM (inactive)
[6]
  GI50: 28.2 µM (inactive)
[7]
  GI50: 14.3 µM (inactive)
[8]
  GI50: 27.4 µM (inactive)
[9]
  GI50: 11 µM (inactive)
[10]
  GI50: 7.89 µM (inactive)
[11]
  GI50: > 100 µM (inactive)
[12]
  GI50: 13.3 µM (inactive)
[13]
  GI50: 23.1 µM (inactive)
[14]
  GI50: 42.7 µM (inactive)
[15]
  GI50: 13.6 µM (inactive)
[16]
  GI50: 18.5 µM (inactive)
[17]
  GI50: 18.2 µM (inactive)
[18]
  GI50: 4.99 µM (inactive)
[19]
  GI50: 18 µM (inactive)
[20]
  GI50: 0.0723 µM (active)
[21]
  GI50: 11.7 µM (inactive)
[22]
  GI50: 18 µM (inactive)
[23]
  GI50: 12.5 µM (inactive)
[24]
  GI50: 11 µM (inactive)
[25]
  GI50: 17.3 µM (inactive)
[26]
  GI50: 5.97 µM (inactive)
[27]
  GI50: 23 µM (inactive)
[28]
  GI50: 32.3 µM (inactive)
[29]
  GI50: 12.1 µM (inactive)
[30]
  GI50: 26.2 µM (inactive)
[31]
  GI50: 20.7 µM (inactive)
[32]
  GI50: 20.1 µM (inactive)
[33]
  GI50: 12 µM (inactive)
[34]
  GI50: 27.1 µM (inactive)
[35]
  GI50: 12.5 µM (inactive)
[36]
  GI50: 21.5 µM (inactive)
[37]
  GI50: 11.1 µM (inactive)
[38]
  GI50: 13 µM
[39]
  GI50: 14.2 µM (inactive)
[40]
  GI50: 18.5 µM (inactive)
[41]
  GI50: 15.3 µM (inactive)
[42]
  GI50: 12.2 µM (inactive)
[43]
  GI50: 15.7 µM (inactive)
[44]
  GI50: 12.4 µM (inactive)
[45]
  GI50: 82.2 µM (inactive)
[46]
  GI50: 4.01 µM (inactive)
[47]
  GI50: 19.4 µM (inactive)
[48]
  GI50: 28.6 µM (inactive)
[49]
  GI50: 18 µM (inactive)
[50]
  GI50: 18.8 µM (inactive)
[51]
  GI50: 14.8 µM (inactive)

## [N-]=[N+]=NC(c1cn(C2CC(O)C(CO)O2)c(=O)[nH]c1=O)C(Cl)I (stereo not given)
[1]
  GI50: > 100 µM (inactive)
[52]
  GI50: > 100 µM (inactive)
[2]
  GI50: > 100 µM (inactive)
[3]
  GI50: > 100 µM (inactive)
[6]
  GI50: > 100 µM (inactive)
[7]
  GI50: > 100 µM (inactive)
[8]
  GI50: > 100 µM (inactive)
[9]
  GI50: > 100 µM (inactive)
[10]
  GI50: > 100 µM (inactive)
[11]
  GI50: 33.3 µM (inactive)
[12]
  GI50: > 100 µM (inactive)
[53]
  GI50: > 100 µM (inactive)
[13]
  GI50: > 100 µM (inactive)
[14]
  GI50: > 100 µM (inactive)
[54]
  GI50: > 100 µM (inactive)
[15]
  GI50: > 100 µM (inactive)
[16]
  GI50: > 100 µM (inactive)
[17]
  GI50: > 100 µM (inactive)
[18]
  GI50: > 100 µM (inactive)
[19]
  GI50: > 100 µM (inactive)
[20]
  GI50: > 100 µM (inactive)
[21]
  GI50: > 100 µM (inactive)
[22]
  GI50: > 100 µM (inactive)
[23]
  GI50: > 100 µM (inactive)
[24]
  GI50: > 100 µM (inactive)
[25]
  GI50: > 100 µM (inactive)
[26]
  GI50: > 100 µM (inactive)
[27]
  GI50: > 100 µM (inactive)
[29]
  GI50: > 100 µM (inactive)
[30]
  GI50: > 100 µM (inactive)
[55]
  GI50: > 100 µM (inactive)
[32]
  GI50: > 100 µM (inactive)
[33]
  GI50: > 100 µM (inactive)
[34]
  GI50: > 100 µM (inactive)
[35]
  GI50: > 100 µM (inactive)
[37]
  GI50: > 100 µM (inactive)
[38]
  GI50: > 100 µM
[39]
  GI50: > 100 µM (inactive)
[40]
  GI50: > 100 µM (inactive)
[41]
  GI50: > 100 µM (inactive)
[43]
  GI50: > 100 µM (inactive)
[56]
  GI50: > 100 µM (inactive)
[44]
  GI50: > 100 µM (inactive)
[45]
  GI50: > 100 µM (inactive)
[47]
  GI50: > 100 µM (inactive)
[48]
  GI50: > 100 µM (inactive)
[49]
  GI50: > 100 µM (inactive)
[50]
  GI50: > 100 µM (inactive)
[51]
  GI50: > 100 µM (inactive)

## CC(C)(NC(=O)OCc1ccccc1)C(=O)NC(Cc1ccccc1)C(=O)NN (stereo not given) (Cbz-[Aib]-[ξF]-NHNH2)
[1]
  GI50: > 100 µM (inactive)
[2]
  GI50: > 100 µM (inactive)
[3]
  GI50: > 100 µM (inactive)
[4]
  GI50: > 100 µM (inactive)
[5]
  GI50: > 100 µM (inactive)
[6]
  GI50: > 100 µM (inactive)
[7]
  GI50: > 100 µM (inactive)
[8]
  GI50: > 100 µM (inactive)
[9]
  GI50: 42.1 µM (inactive)
[10]
  GI50: > 100 µM (inactive)
[11]
  GI50: > 100 µM (inactive)
[12]
  GI50: > 100 µM (inactive)
[53]
  GI50: > 100 µM (inactive)
[13]
  GI50: > 100 µM (inactive)
[14]
  GI50: > 100 µM (inactive)
[54]
  GI50: > 100 µM (inactive)
[15]
  GI50: > 100 µM (inactive)
[16]
  GI50: > 100 µM (inactive)
[17]
  GI50: > 100 µM (inactive)
[19]
  GI50: > 100 µM (inactive)
[20]
  GI50: > 100 µM (inactive)
[57]
  GI50: > 100 µM (inactive)
[21]
  GI50: > 100 µM (inactive)
[22]
  GI50: > 100 µM (inactive)
[23]
  GI50: > 100 µM (inactive)
[24]
  GI50: > 100 µM (inactive)
[25]
  GI50: > 100 µM (inactive)
[26]
  GI50: > 100 µM (inactive)
[27]
  GI50: > 100 µM (inactive)
[28]
  GI50: > 100 µM (inactive)
[29]
  GI50: > 100 µM (inactive)
[30]
  GI50: > 100 µM (inactive)
[55]
  GI50: > 100 µM (inactive)
[31]
  GI50: > 100 µM (inactive)
[32]
  GI50: > 100 µM (inactive)
[33]
  GI50: > 100 µM (inactive)
[34]
  GI50: > 100 µM (inactive)
[35]
  GI50: > 100 µM (inactive)
[36]
  GI50: > 100 µM (inactive)
[37]
  GI50: > 100 µM (inactive)
[38]
  GI50: > 100 µM
[39]
  GI50: > 100 µM (inactive)
[40]
  GI50: > 100 µM (inactive)
[41]
  GI50: > 100 µM (inactive)
[42]
  GI50: > 100 µM (inactive)
[43]
  GI50: > 100 µM (inactive)
[56]
  GI50: > 100 µM (inactive)
[44]
  GI50: > 100 µM (inactive)
[58]
  GI50: > 100 µM (inactive)
[45]
  GI50: > 100 µM (inactive)
[47]
  GI50: > 100 µM (inactive)
[48]
  GI50: > 100 µM (inactive)
[49]
  GI50: > 100 µM (inactive)
[50]
  GI50: > 100 µM (inactive)
[51]
  GI50: > 100 µM (inactive)

From ChEMBL document CHEMBL1201862, “PubChem BioAssay data set” (2004)
